In PMC3574224, “Na^+ Regulation in the Malaria Parasite Plasmodiumfalciparum Involves the Cation ATPase PfATP4 and Is a Target of the Spiroindolone Antimalarials” (Cell Host & Microbe, 2013):

Assays:
[1] = molecular target: T1, membrane-associated ATPase activity, Dd2^attB CAM I398F/P990R (mutant PfATP4 transfectant) (Plasmodium falciparum, UniProt A0A143ZZK9, I398F/P990R); experiment: Membrane-associated ATPase activity, Dd2^attB CAM I398F/P990R; assay type: biochemical; conditions: concentration causing Pi production rate to decrease by half the maximal amount, read-out: IC50 for disruption of ATPase activity by NITD246
T1 sequence (A0A143ZZK9 1-1264 I398F/P990R): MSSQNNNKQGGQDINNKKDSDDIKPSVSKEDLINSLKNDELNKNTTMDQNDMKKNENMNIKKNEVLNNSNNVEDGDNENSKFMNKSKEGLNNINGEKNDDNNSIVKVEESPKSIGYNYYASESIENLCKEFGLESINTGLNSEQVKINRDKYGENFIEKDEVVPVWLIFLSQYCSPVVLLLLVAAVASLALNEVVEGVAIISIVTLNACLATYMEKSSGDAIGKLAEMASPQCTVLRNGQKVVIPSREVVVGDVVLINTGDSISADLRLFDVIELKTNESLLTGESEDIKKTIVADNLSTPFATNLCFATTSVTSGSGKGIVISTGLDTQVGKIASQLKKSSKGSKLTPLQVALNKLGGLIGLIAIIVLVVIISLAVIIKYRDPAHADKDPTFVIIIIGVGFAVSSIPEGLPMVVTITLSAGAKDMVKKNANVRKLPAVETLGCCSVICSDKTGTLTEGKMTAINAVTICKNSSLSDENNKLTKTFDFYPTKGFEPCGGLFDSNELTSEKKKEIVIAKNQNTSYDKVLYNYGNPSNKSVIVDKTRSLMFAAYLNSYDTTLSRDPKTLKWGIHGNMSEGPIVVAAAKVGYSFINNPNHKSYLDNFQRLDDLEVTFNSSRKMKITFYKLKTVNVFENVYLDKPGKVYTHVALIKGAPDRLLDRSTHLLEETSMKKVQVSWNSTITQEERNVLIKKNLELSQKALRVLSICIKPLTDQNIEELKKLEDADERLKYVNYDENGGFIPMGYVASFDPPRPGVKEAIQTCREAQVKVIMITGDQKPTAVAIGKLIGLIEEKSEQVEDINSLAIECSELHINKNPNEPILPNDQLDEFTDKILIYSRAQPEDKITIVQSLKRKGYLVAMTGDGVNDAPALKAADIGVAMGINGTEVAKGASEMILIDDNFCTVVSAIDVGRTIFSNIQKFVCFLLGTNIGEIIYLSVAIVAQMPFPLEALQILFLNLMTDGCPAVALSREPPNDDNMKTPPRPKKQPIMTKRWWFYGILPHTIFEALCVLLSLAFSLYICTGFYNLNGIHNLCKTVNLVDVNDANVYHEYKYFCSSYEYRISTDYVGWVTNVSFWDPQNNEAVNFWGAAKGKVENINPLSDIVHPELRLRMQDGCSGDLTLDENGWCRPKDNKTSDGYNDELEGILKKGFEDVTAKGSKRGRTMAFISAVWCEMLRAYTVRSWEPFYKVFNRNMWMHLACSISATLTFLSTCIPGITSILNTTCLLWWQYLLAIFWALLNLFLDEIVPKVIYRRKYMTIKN
Procedure: For the preparation of uninfected erythrocyte membranes, packed uninfected erythrocytes were lysed by incubation for 5 min in ice-cold PBS containing 0.1% (w/v) saponin together with 1/500 Protease Inhibitor Cocktail Set III (Calbiochem). The erythrocyte ghosts were pelleted by centrifugation (12,000 × g, 10 min) and washed three times in ice-cold water (12,000 × g, 10 min) immediately prior to their use in the ATPase assay. To prepare membranes from parasitised erythrocytes, saponin-isolated parasites were lysed by suspension in ice-cold water (containing 1/500 Protease Inhibitor Cocktail Set III) then washed three times in ice-cold water (12,000 × g, 10 min) before their immediate use in the ATPase assay. The ATPase activity of membrane preparations from uninfected erythrocytes and saponin-isolated parasites was estimated from the rate of hydrolysis of ATP and measured using the PiColorLock Gold Phosphate (Pi) Detection System (Innova Biosciences). Briefly, membrane preparations from 1–3 × 10^8 cells were suspended in reaction buffer (100 mM of either NaCl or choline chloride, 50 mM Tris-HCl, 20 mM KCl, and 2 mM MgCl2) at 37°C. The ATPase reaction was initiated by the addition of 0.25 mM Na2ATP. Note that it was necessary to use the Na^+ salt of ATP, rather than the K^+ and Mg^2+ salts, as the latter both contain residual Pi that saturated the Pi detection system. […]

[2] = system: P. falciparum trophozoites; experiment: Cytosolic pH (pHi) in BCECF-loaded saponin-isolated parasites; assay type: cell-based, Plasmodium falciparum; conditions: 50 nM
Procedure: pHi of saponin-isolated parasites was measured using the pH-sensitive indicator BCECF (Molecular Probes, Invitrogen) as described previously ([Saliba and Kirk, 1999]). […] Critical experiments performed using SBFI-loaded parasites were repeated with parasites loaded with BCECF.

SMILES: C[C@H]1Cc2c([nH]c3cc(F)c(F)cc23)[C@@]2(N1)C(=O)Nc1ccc(Cl)cc12 [NITD246]
- IC50 [1]: 0.17 ± 0.12 nM
- Cytosolic pH (pHi) after addition ([2]; Na^+-containing medium pH 7.1, increase from 7.33 ± 0.03, n = 6, p = 0.009): 7.46 ± 0.02
- Effect on pHi ([2]; solution containing choline^+ in place of Na^+): no significant effect
